The nature of this data set: solvent given as SMILES.

Structures are written as SMILES. Where “and” joins values, the source holds several entries; their conditions need not be identical. Identical values can stand only once.

As for `F[B-]1(F)OC(c2ccc(C(F)(F)F)cc2)=Cc2cc(Cl)nc[n+]21`, the absorption maximum is 371 nm (in C1CCOC1); 368 nm (in CC#N); 370 nm (in CCCCCC); 374 nm (in Cc1ccccc1); 372 nm (in ClC(Cl)Cl); 372 nm (in ClCCl).
As to `c1ccc2c(c1)-c1ccccc1C21c2ccccc2-c2sc3c(c21)C1(c2ccccc2-c2ccccc21)c1ccccc1-3`, the absorption maximum (in C1CCOC1) is listed as 373 nm.
`CCCCC(CC)CN1C(=O)c2cccc3c(C#Cc4ccc(N(c5ccccc5)c5ccccc5)cc4)ccc(c23)C1=O` (configuration not stated): the absorption maximum is, setting by setting: (in C1CCCCC1) 422 nm; (in C1CCOC1) 434 nm; (in CC#N) 433 nm; (in Cc1ccccc1) 438 nm; (in ClC(Cl)Cl) 450 nm.
For `F[B-]1(F)Oc2c(-c3cccc4c3O[B-](F)(F)[n+]3c(-c5ccccc5)c(-c5ccccc5)n(-c5ccc(C(F)(F)F)cc5)c3-4)cccc2-c2n(-c3ccc(C(F)(F)F)cc3)c(-c3ccccc3)c(-c3ccccc3)[n+]21`, the absorption maximum (in C1CCOC1) is given as 342 nm.
Consider `COc1ccc(C#Cc2ccc3ccc(=O)oc3c2)cc1`, for which, for the setting “in CC#N”, the absorption maximum is 308 nm.
For `CCC1=C(C2=C(C3=C(CC)S(=O)(=O)c4ccccc43)C(F)(F)C(F)(F)C2(F)F)c2ccccc2S1(=O)=O`, under “in C1COCCO1”, the absorption maximum is on record as 310 nm.
With `CCOC(=O)C(C(=O)OCC)C1=[N+]2C(=C(c3ccc(C)cc3)c3ccc(Cl)n3[B-]2(F)F)C=C1`, the absorption maximum is 514 nm (in C1CCCCC1); 511 nm (in C1CCOC1); 509 nm (in CCOC(C)=O); 508 nm (in CO); 515 nm (in Cc1ccccc1); 513 nm (in ClC(Cl)Cl).
As to `CCN(CC)c1ccc(/C=N/c2cc3ccccc3cc2/N=C/c2ccc(N(CC)CC)cc2O)c(O)c1`, the absorption maximum stood at 403 nm (in CC#N), 416 nm (in CN(C)C=O) and 447 nm (in ClCCl).
In turn, `O=C1c2ccc(-c3ccc(N(c4ccccc4)c4ccccc4)cc3)cc2C(=O)c2ccc(-c3ccc(N(c4ccccc4)c4ccccc4)cc3)cc21` had an absorption maximum (in Cc1ccccc1) of 454 nm.
As to `CCN(CC)c1ccc(/N=N/c2nc3ccc(OC)cc3s2)cc1`, the absorption maximum is 515 nm (in CC#N) and 517 nm (in ClCCl).
As for `c1ccc(-c2nc(-c3ccccc3)nc(-c3ccc(-n4c5ccccc5c5cc6c7ccccc7n7c8ccccc8c(c54)c67)cc3)n2)cc1`, the absorption maximum (in Cc1ccccc1) amounted to 383 nm.
For `CC[n+]1c(C=C2C(=O)C(C=C3N(C)c4ccc(Cl)cc4C3(C)C)=C2[O-])sc2ccccc21`, the absorption maximum (in CO) amounted to 634 nm, the absorption maximum (in ClC(Cl)Cl) came out at 649 nm and the absorption maximum (in ClCCl) was found to be 650 nm.
On to `CN(C)c1ccc2nc(-c3ccc(C(=O)Nc4ccccc4)cc3)sc2c1`, for which the absorption maximum by setting is: (in C1CCCCC1) 387 nm and 384 nm; (in CC#N) 388 nm; (in CC(C)O) 389 nm; (in CO) 389 nm; (in CS(C)=O) 396 nm; (in ClC(Cl)Cl) 383 nm. The same molecule came in with an absorption maximum (in c1ccccc1) of 392 nm.
Take `COc1ccc2cc(C3=[N+]4C(=Nc5c(-c6ccc7ccccc7c6)c(Br)c(-c6ccc7cc(OC)ccc7c6)n5[B-]4(F)F)C(c4ccc5ccccc5c4)=C3Br)ccc2c1`: the absorption maximum (in ClCCl) came to 698 nm.
Molecule `CCN(CC)c1ccc(-c2nc3c4ccccc4n(C)c3nc2-c2ccc([B-](F)(c3c(C)cc(C)cc3C)c3c(C)cc(C)cc3C)cc2)cc1` displayed an absorption maximum (in C1CCOC1) of 411.11 nm.
Consider `CCOC(=O)CN1C(=O)C2=C(c3ccccc3)N(CC(=O)OCC)C(=O)C2=C1c1ccccc1`, for which the absorption maximum is reported as 454 nm (in CC#N), 460 nm (in CS(C)=O) and 462 nm (in Cc1ccccc1).
Molecule `CCCCN1C(=O)c2cc(Oc3ccc(C(C)(C)C)cc3)c3c4c(Oc5ccc(C(C)(C)C)cc5)c(Oc5ccc(C(C)(C)C)cc5)c5c6c(cc(Oc7ccc(C(C)(C)C)cc7)c(c7c(Oc8ccc(C(C)(C)C)cc8)c(Oc8ccc(C(C)(C)C)cc8)c(c2c37)C1=O)c64)C(=O)N(CCCC)C5=O` registered an absorption maximum (in ClC(Cl)Cl) of 570 nm.
On to `CCOc1ccc2cc(-c3ccc(C)cc3)c(=O)oc2c1`, for which the absorption maximum was determined as 342 nm (in C1CCOC1), 338 nm (in CCCCCC), 344 nm (in CCO) and 345 nm (in CS(C)=O).
As to `C1=C(c2ccccc2)C=C(c2ccccc2)/C1=C/C1CCCCC1`, the absorption maximum (in C1CCOC1) was determined as 365 nm.
On to `Cc1ccc(-c2c3ccc([nH]3)c3nc(c(-c4ccc(C#N)cc4)c4ccc([nH]4)c4ccc([nH]4)c(-c4ccc(C)cc4)c4ccc2o4)C=C3)cc1`, for which the absorption maximum by setting is: (in C1CCOC1) 451 nm; (in Cc1ccccc1) 452 nm; (in c1ccccc1) 452 nm.
Consider `N#C/C(=C\c1cc(/C=C(\C#N)c2ccc(C(F)(F)F)cc2)c(-c2ccc(N(c3ccccc3)c3ccccc3)cc2)cc1-c1ccc(N(c2ccccc2)c2ccccc2)cc1)c1ccc(C(F)(F)F)cc1`, for which the absorption maximum runs as follows: (in C1CCCCC1) 405 nm; (in C1CCOC1) 402 nm; (in CCCCCC) 402 nm; (in CCOC(C)=O) 397 nm; (in Cc1ccccc1) 408 nm; (in ClC(Cl)Cl) 407 nm. Besides, the absorption maximum (in ClCCl) came to 405 nm.
With `CN(C)c1ccc2cc(C3=[O+][B-](F)(F)OC(c4ccc(C#N)cc4)=C3)ccc2c1`, the absorption maximum came out at 525 nm (in C1CCOC1); 539 nm (in CC#N); 533 nm (in CC(C)=O); 559 nm (in CS(C)=O); 519 nm (in Cc1ccccc1); 532 nm (in ClC(Cl)Cl). Further, where the note is “in ClCCl”, the absorption maximum is on record as 539 nm.
`C[Si](C)(C)c1sc([Si](C)(C)C)c2c1sc1ccsc12`: the absorption maximum (in ClC(Cl)Cl) was found to be 310 nm.
For `CCOC(=O)c1cc(C(=O)OCC)c2ccccc2n1`, for the setting “in CCO”, the absorption maximum stood at 319 nm.
In turn, `CCCCn1c2ccc(-c3ccc(OC)cc3)cc2c2ccc3c4cc(-c5ccc(OC)cc5)ccc4n(CCCC)c3c21` registered an absorption maximum (in ClC(Cl)Cl) of 338 nm.
The same measure, in the same setting: for `O=C1O/C(=C2/C(=O)Oc3ccccc32)C(O)=C1c1ccccc1` the value was 388 nm.
`COc1ccc(O)cc1C=O`: the absorption maximum is, setting by setting: (in CO) 355 nm; (in ClC(Cl)Cl) 349 nm.
`Cc1c(C(=O)c2ccc(C(F)(F)F)cc2)c2ccc3cccc4c5cccc6ccc1c(c65)c2c34` yielded an absorption maximum (in ClCCl) of 370 nm.
In the case of `CN1C(=CC2=C([O-])C(=CC3=[N+](C)c4ccccc4C3(C)C)C2=C2C(=O)NC(=O)NC2=O)C(C)(C)c2ccccc21`, the absorption maximum (in ClC(Cl)Cl) worked out at 644 nm.
As for `Cc1ccc(C2=C3C=CC(/C=C/c4ccccc4)=[N+]3[B-](F)(F)n3c(/C=C/c4ccccc4)ccc32)cc1`, the absorption maximum came to 630 nm (in C1CCCCC1); 632 nm (in C1CCOC1); 633 nm (in C1COCCO1); 626 nm (in CO); 635 nm (in ClC(Cl)Cl).
Molecule `F[B-]1(F)OC(c2ccc(N3CCCCC3)cc2)=Cc2cccc[n+]21` came in with an absorption maximum (in ClC(Cl)Cl) of 421 nm.
Regarding `CCCCN(CCCC)c1ccc2c(c1)C#CC#Cc1cc(C(F)(F)F)ccc1C#Cc1cc(c3cc1C#Cc1ccc(N(CCCC)CCCC)cc1C#CC#Cc1cc(C(F)(F)F)ccc1C#C3)C#C2`, the absorption maximum (in ClCCl) is reported as 477 nm.
The molecule `CC1(C)c2ccccc2N(c2ccc(-c3nc(-c4ccccc4)cc(-c4ccccc4)n3)cc2)c2ccccc21` showed an absorption maximum (in Cc1ccccc1) of 366.6 nm.
Turning to `CCCCCCC(CCCCCC)N1C(=O)c2cccc3c(-c4ccc(OC)c5cccc(C)c45)ccc(c23)C1=O`, the absorption maximum (in CCCCCC) is reported as 326.6 nm; the absorption maximum (in CCCCCCCCCCCCCC) stood at 327 nm; the absorption maximum (in CCCCCCCCCCCO) was 329 nm; the absorption maximum (in CCCCO) is given as 327.8 nm; the absorption maximum (in CN(C)C=O) came out at 328.8 nm; the absorption maximum (in Cc1ccccc1) stood at 328.8 nm. The molecule also yielded an absorption maximum (in ClC(Cl)Cl) of 329 nm.
With `N#CC1=CC(C#Cc2ccccc2)=CC(C#N)=P1(c1ccccc1)c1ccccc1`, the absorption maximum (in ClC(Cl)Cl) came to 489 nm.
Consider `F[B-]1(F)OC(c2ccccc2)=C(c2ccccc2)c2sc3ccccc3[n+]21`, for which the absorption maximum (in C1CCOC1) is listed as 360 nm.
As to `CNC(=O)[C@H](C)NC(=O)c1cccc2c1C#Cc1c(NC(=O)[C@@H](NC(C)=O)C(C)C)cccc1OCCCO2`, the absorption maximum reads like this: (in CC#N) 324 nm; (in ClCCl) 336 nm.
Turning to `CN1CCN(CCCN2c3ccccc3Sc3ccc(Cl)cc32)CC1`, the absorption maximum is, setting by setting: (in CC#N) 314 nm; (in CO) 313 nm; (in O) 309 nm.
For the setting “in C1CCCCC1”, `Nc1ccccc1` gave an absorption maximum of 283.13 nm.
On to `COc1ccc(C2=C3C(/C=C/c4cc(OC)c(OC)c(OC)c4)=C(C=O)C(/C=C/c4cc(OC)c(OC)c(OC)c4)=[N+]3[B-](F)(F)n3c(/C=C/c4cc(OC)c(OC)c(OC)c4)c(C=O)c(C=Cc4cc(OC)c(OC)c(OC)c4)c32)cc1`, for which the absorption maximum (in ClCCl) is on record as 688 nm.
With `CC1(C)C(/C=C/C2=C(Oc3ccc(CCN=C=S)cc3F)C(=C/C=C3/N(CCCS(=O)(=O)[O-])c4ccccc4C3(C)C)/CCC2)=[N+](CCCS(=O)(=O)[O-])c2ccccc21`, the absorption maximum (in CO) amounted to 768 nm.
Regarding `Nc1ccc(N2C(=O)c3ccc4c5ccc6c7c(ccc(c8ccc(c3c48)C2=O)c75)C(=O)N(c2ccc(N)cc2)C6=O)cc1`, for the setting “in CN(C)C=O”, the absorption maximum stood at 537 nm.
As for `COc1ccc2cc(-c3ccc(C)cc3)c(=O)oc2c1`, the absorption maximum reads like this: (in C1CCOC1) 342 nm; (in CCCCCC) 338 nm; (in CCO) 342 nm; (in CS(C)=O) 345 nm.
The molecule `COC(=O)c1[nH]c(-c2ccc(OC)cc2)c2nnc3ccc(OC)cc3c12` showed an absorption maximum (in ClCCl) of 401 nm.
Regarding `C1=C(c2ccccc2)C(c2ccccc2)C(c2ccccc2)=C1`, the absorption maximum (in C1CCOC1) stood at 304 nm.
On to `c1ccc(N(c2ccccc2)c2ccc(-c3ncc(-c4cccs4)s3)cc2)cc1`, for which the absorption maximum (in CO) is listed as 387 nm.

Source of the values: the Deep4Chem optical property database.
